{
  "source": "patent US7511123B2",
  "about": "“Immuno-interactive fragments of the alpha-C subunit of inhibin” (Prince Henry's Institute of Medical Research, priority 1999, dated 2009)",
  "key": {"As #41 [1]": {"system": "As #41", "test": "Two-site assay design variation: biotinylated #41 pre-incubated with peptide", "type": "binding, sheep", "conditions": "non-biotinylated peptides 0.1-1.0 micromolar", "method": "(iv) In a variation to the above design, biotinylated #41 was pre-incubated with peptide (0.1-1.0 micromolar) for 1.5 hours at room temperature and then added to the As #128 coated plate pre-bound with inhibin as for (i)-(iii). […] Combination of peptide #5 and #30 led to 74% decrease."}, "R1 [2]": {"system": "R1", "test": "Solid phase binding of Set 2 peptides to R1", "parameters": "species or system mouse; key: +++; ΦΦΦ strong effect; +, Φ weak effect", "conditions": "Set 2 biotinylated peptides 24 micromoles/L", "method": "(§1) The binding of the 41 biotinylated peptides as set forth in Table 7 (peptide set 2) to the mouse monoclonal antibodies (PO# series) was assessed as follows:\n(§2) a) Assay 1 (solid phase assay). The assay was undertaken as outlined in assay 1 of Example 2. Biotinylated peptides (24 micromoles/L) were initially bound to streptavidin-coated plates. Mab (at an appropriate dilution to give a detectable response, 1:1000, 1:10000 dilution of the culture medium) was then added and incubated for 1.5 hr. The amount of bound Mab was determined using horseradish peroxidase-bound anti-mouse IgG serum and enzyme activity detected at 450-630 nm using an ELISA plate reader."}, "R1 [3]": {"system": "R1", "test": "RIA of Set 2 peptides with R1", "type": "binding, mouse", "parameters": "key: ΦΦΦ strong effect; +, Φ weak effect; a) limited binding", "conditions": "Set 2 biotinylated peptides 0.8 and 0.08 micromoles/L", "method": "(§3) The binding of the 41 biotinylated peptides as set forth in Table 7 (peptide set 2) to the mouse monoclonal antibodies (PO# series) was assessed as follows: b) Assay 2 (radioimrnunoassay, RIA) using iodinated human inhibin A as tracer. Mabs (at an appropriate dilution, see above) were incubated with iodinated human recombinant inhibin in the presence of biotinylated peptides (0.8 and 0.08 micromoles/L final concentration) overnight at room temperature."}, "PO-22 [4]": {"system": "PO-22", "test": "RIA of Set 2 peptides with PO-22", "type": "binding, mouse", "conditions": "Set 2 biotinylated peptides 0.8 and 0.08 micromoles/L", "method": "as §3"}, "PO-22 [5]": {"system": "PO-22", "test": "Solid phase binding of Set 2 peptides to PO-22", "parameters": "species or system mouse; key: +++; ΦΦΦ strong effect; +, Φ weak effect", "conditions": "Set 2 biotinylated peptides 24 micromoles/L", "method": "as §1, §2"}, "As#41": {"system": "As#41", "test": "Sandwich assay with As#41 as both coating and labeled antibody, no inhibin", "type": "binding, sheep", "conditions": "peptide added to both coating and labeled As#41", "text": "It has not been established if the same antibodies are present in As #128."}, "As #128 [6]": {"system": "As #128", "test": "Two-site assay design: peptides pre-incubated with As #128 coated plate", "type": "binding, sheep", "conditions": "non-biotinylated peptides 0.1-1 micromolar", "method": "On the other hand, the IFMA design is based on the total amount of inhibin bound which is a combination of both antibody affinity and concentration. In order to establish to what extent epitopes to these peptides contribute to the overall IFMA, the following two-site assay designs were used.\n(i) Peptides #5, #20 and #30 (0, 0.1-1 micromolar) were incubated with the As #128 coated plate for 1.5 hours at RT and the wells washed. The highest dose of peptide used was saturating.\n(ii) Hr-Inhibin was then added as a saturating or near saturating dose to the As #128 coated plate and incubated for 2 hours at room temperature and the plate washed.\n(iii) Biotinylated As #41 was added to the above wells and incubated for 2 hours at RT. Plates were then washed and counted."}, "As #1989": {"system": "As #1989", "test": "RIA (Assay 2): competition with iodinated inhibin for As #1989", "type": "binding, rabbit", "method_in_brief": "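Radioimmunoassay measuring how well peptides compete with iodinated 30 kDa human recombinant inhibin tracer for binding to antiserum #1989. Graded doses of peptide, iodinated inhibin and diluted antiserum were incubated overnight at 4° C. Antibody-bound tracer was precipitated with goat anti-sheep IgG serum and counted in a gamma counter. The ED50, the peptide concentration halving tracer binding, indicated affinity.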"}, "PO-6": {"system": "PO-6", "test": "Solid phase binding of Set 2 peptides to PO-6", "parameters": "species or system mouse; key: +++; ΦΦΦ strong effect; +, Φ weak effect", "conditions": "Set 2 biotinylated peptides 24 micromoles/L", "method": "as §1, §2"}, "As #128 [7]": {"system": "As #128", "test": "Solid phase assay (Assay 1): biotinylated peptides binding to As #128", "parameters": "species or system sheep; key: +++++ major contribution; + minor contribution", "conditions": "relative contribution", "method_in_brief": "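The 31 biotinylated peptides were captured on streptavidin-coated wells for 2 h at room temperature, then incubated with ovine antiserum #41 or #128 for 2 h at room temperature. Bound antiserum was detected with HRP-labelled anti-ovine IgG and a colorimetric substrate read spectrophotometrically; the signal is proportional to peptide binding.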"}, "As #128 [8]": {"system": "As #128", "test": "RIA (Assay 2): competition with iodinated inhibin for As #128", "type": "binding, sheep", "method_in_brief": "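Graded doses of peptide or hr-inhibin standard competed with iodinated human recombinant 30 kDa inhibin tracer for the sheep antiserum at a set dilution, overnight at 4°C. Bound tracer was precipitated with goat anti-sheep IgG and gamma-counted. ED50 is the dose producing 50% loss of tracer binding.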"}, "As #41 [9]": {"system": "As #41", "test": "Competitive 2-site assay (Assay 3), approach (b)", "type": "binding, sheep", "conditions": "biotinylated peptide pools or peptides incubated with iodinated As #41", "text": "This assay was developed to establish the relative importance of the individual peptides and peptide pools (identified as epitopes in Assays 1 and 2) in the sandwich antibody format used in the IFMA with As #128 as capture antibody and As #41 as detection antibody. Two approaches (a and b) were considered, Approach (a) explores the cross-reaction of peptides with inhibin for the immobilized As #128 while Approach (b) assesses their cross-reaction with inhibin for As #41.\nApproach (b). In this approach, the competition of peptides with the As #41 antiserum using the sandwich antibody format was assessed. Hr-Inhibin was initially incubated with the As #128 coated wells for 1 hour at room temperature. The biotinylated peptide pools and/or individual peptides were incubated together with iodinated As #41 for 1 hour and then added to the inhibin bound As #128 coated plates and incubated for 2 hours at room temperature. Plates were then washed to remove any unbound material and the resulting activity was measured in the gamma counter."}, "[10]": {"conditions": "biotinylated peptides, 50% fall in binding of iodinated inhibin"}, "[11]": {"conditions": "non-biotinylated peptides, hr-inhibin A as standard"}},
  "data": [
    {"substance": "SGSG WSPSALRLLQRPPE [Peptide 5]", "values": [
      {"measurement": "inhibition with biotinylated #41 pre-incubated with peptide", "setting": "As #41 [1]", "value": 50, "unit": "%"},
      {"measurement": "R1 SPB", "setting": "R1 [2]", "value": "+"},
      {"measurement": "R1 RIA", "setting": "R1 [3]", "value": "ΦΦΦ"},
      {"measurement": "PO-22 RIA", "setting": "PO-22 [4]", "value": "ΦΦ"},
      {"measurement": "PO-22 SPB", "setting": "PO-22 [5]", "value": "+++"},
      {"measurement": "binding in the absence of inhibin", "setting": "As#41", "value": "significant binding"},
      {"measurement": "suppression in binding with As #128", "setting": "As #128 [6]", "value": 65, "unit": "%"},
      {"measurement": "As#1989 ED50", "setting": "As #1989; [10]", "value": ">2.5", "unit": "µM"},
      {"measurement": "ED50 values As#1989", "setting": "As #1989; [11]", "value": ">10", "unit": "µM"},
      {"measurement": "PO-6 SPB", "setting": "PO-6", "value": "+++"},
      {"measurement": "#128 Antibody screen Assay 1", "setting": "As #128 [7]", "value": "+"},
      {"measurement": "As#128 ED50", "setting": "As #128 [8]; [10]", "value": 3.8, "unit": "µM"},
      {"measurement": "ED50 values As#128", "setting": "As #128 [8]; [11]", "value": ">10", "unit": "µM"},
      {"measurement": "blocking of As #41 binding to the inhibin-As#128 complex", "setting": "As #41 [9]", "value": 50, "unit": "%"}
    ]}
  ]
}
